The values that follow come from US12171755B2, “PAPD5 inhibitors and methods of use thereof” (Children's Medical Center Corporation, priority 2017, dated 2024).

In the assay the target is T1, PAPD5 (Homo sapiens, UniProt Q8NDF8).
T1 construct: made in house
The assay can be described thus: High-throughput luminescence (KinaseGlo) RNA polyadenylation assay, ATP utilization by recombinant PAPD5. It counts as biochemical. The settings on record: Table 4 (entries of Table 5), ratio of luminescence with inhibitor to DMSO; for Fold-change determined at compound concentration 33 μM: 33 μM compound; for Fold-change determined at compound concentration 100 μM: 100 μM compound, higher = higher inhibition. On the procedure:
Optimal conditions for an in vitro RNA polyadenylation assay using recombinant PAPD5, ATP and an oligonucleotide substrate were identified. The HTS assay involved ATP utilization by PAPD5, which reads out as a decreased luminescence signal produced by luciferase (KinaseGlo, Promega, Madison, WI).
100 nl of compound dissolved in DMSO was transferred to each well of the assay plate via pin transfer. For negative control wells, DMSO alone was added. Plates were gently vortexed for 5 seconds, then incubated for 2 hours at room temperature.
After 2 hours, 5 ul of luciferase (Promega KinaseGlo, Madison, WI) was added using a MultiDrop Combi (Thermo Fisher Scientific, Waltham, MA). The mixture was gently vortexed for 5 seconds and incubated for 10 minutes at room temperature. Plates were spun for 1 minute prior to luminescence measurements. Luminescent measurements were quantitated using a PerkinElmer EnVision™ plate reader.
˜100,000 compounds from various libraries at the ICCB-Longwood were screened in this manner in duplicate.
The fold change was the ratio of luminescence from a sample with inhibitor compared to that with DMSO. Thus, a higher number indicates higher inhibition.
(In general: In Kinase-Glo more light means more ATP remaining.)

T1 sequence (Q8NDF8 68-698 isoform Q8NDF8-5): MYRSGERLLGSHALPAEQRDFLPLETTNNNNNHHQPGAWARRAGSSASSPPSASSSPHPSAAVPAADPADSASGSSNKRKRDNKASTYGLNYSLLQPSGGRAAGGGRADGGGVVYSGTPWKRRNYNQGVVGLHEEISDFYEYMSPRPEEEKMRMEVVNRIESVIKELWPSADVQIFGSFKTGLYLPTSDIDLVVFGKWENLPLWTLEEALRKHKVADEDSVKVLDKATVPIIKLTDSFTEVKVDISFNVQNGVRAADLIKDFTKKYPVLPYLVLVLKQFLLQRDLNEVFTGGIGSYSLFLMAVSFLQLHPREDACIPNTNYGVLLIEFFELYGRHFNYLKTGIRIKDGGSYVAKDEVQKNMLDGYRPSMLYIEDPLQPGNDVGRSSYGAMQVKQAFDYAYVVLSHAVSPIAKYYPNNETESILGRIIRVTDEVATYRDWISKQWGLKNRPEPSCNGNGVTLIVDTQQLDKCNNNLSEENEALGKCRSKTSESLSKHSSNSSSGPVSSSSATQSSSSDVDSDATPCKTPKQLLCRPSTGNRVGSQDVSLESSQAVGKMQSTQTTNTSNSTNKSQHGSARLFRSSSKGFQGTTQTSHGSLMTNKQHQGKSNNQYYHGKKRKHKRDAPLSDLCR

Turning to `COc1cccc(NC(=O)c2ccc3c(=O)n4nc(Nc5ccccc5OC)sc4nc3c2)c1` [Entry 218, 2-(2-methoxyanilino)-N-(3-methoxyphenyl)-5-oxo-[1,3,4]thiadiazolo[2,3-b]quinazoline-8-carboxamide], the “Fold-change determined at compound concentration 33 μM” value came to 1.096 and the “Fold-change determined at compound concentration 100 μM” value was found to be 1.304.
The corresponding values for `Clc1ccc(Nc2nnc(Cc3ccncc3)c3ccccc23)cc1` [Entry 52, N-(4-chlorophenyl)-4-(pyridin-4-ylmethyl)phthalazin-1-amine] are 1.133 and 1.275.
For the molecule `CC(C)c1nnc2ccc(N3CCN(C)CC3)nn12` [Entry 50, 3-isopropyl-6-(4-methylpiperazino)[1,2,4]triazolo[4,3-b]pyridazine], the “Fold-change determined at compound concentration 33 μM” value worked out at 1.336 and the “Fold-change determined at compound concentration 100 μM” value was determined as 2.083.
The corresponding values for `O=S(=O)(NC1=NC2=NC(c3ccccc3)=CC(c3ccc(F)cc3)N2N1)c1ccc(Cl)cc1` (stereo not shown) [Entry 157, 4-chloro-N-[7-(4-fluorophenyl)-5-phenyl-1,7-dihydro-[1,2,4]triazolo[1,5-a]pyrimidin-2-yl]benzenesulfonamide] are 1.059 and 1.203.
The corresponding values for `CC1Oc2ccc(C(=O)CSc3nc(-c4ccc(Cl)cc4)c(C#N)c(=O)[nH]3)cc2NC1=O` (stereo not shown) [Entry 233, 4-(4-chlorophenyl)-2-{[2-(2-methyl-3-oxo-3,4-dihydro-2H-1,4-benzoxazin-6-yl)-2-oxoethyl]sulfanyl}-6-oxo-1,6-dihydro-5-pyrimidinecarbonitrile] are 1.256 and 1.859.
`O=C(O)c1csc2nc[nH]c(=O)c12` [Entry 210, 4-Oxo-3,4-dihydrothieno[2,3-d]pyrimidine-5-carboxylic acid]: the “Fold-change determined at compound concentration 33 μM” value is 1.136 and the “Fold-change determined at compound concentration 100 μM” value worked out at 1.311.
The corresponding values for `Cc1ccc2c(=O)cc(C(=O)Nc3nnc(C)s3)oc2c1` [Entry 116, 7-methyl-N-(5-methyl-1,3,4-thiadiazol-2-yl)-4-oxo-4H-chromene-2-carboxamide] are 1.459 and 2.138.
The corresponding values for `Cc1cc2oc(C(=O)Nc3nnc(C(C)C)s3)cc(=O)c2cc1C` [Entry 122, 6,7-dimethyl-4-oxo-N-(5-propan-2-yl-1,3,4-thiadiazol-2-yl)chromene-2-carboxamide] are 1.134 and 1.377.
The corresponding values for `CC(=O)Nc1ccc2nc3c(=O)[nH]c(=O)[nH]c3nc2c1` [Entry 234, N-(2,4-dioxo-1H-benzo[g]pteridin-8-yl)acetamide] are 1.319 and 1.648.
On to `COc1ccc(NC(=O)c2ccc3c(SCC(=O)O)c4c(nc3c2)CCC4)c(OC)c1` [Entry 87, 2-[[6-[(2,4-dimethoxyphenyl)carbamoyl]-2,3-dihydro-1H-cyclopenta[b]quinolin-9-yl]sulfanyl]acetic acid], for which the “Fold-change determined at compound concentration 33 μM” value came out at 1.097 and the “Fold-change determined at compound concentration 100 μM” value came out at 1.253.
Consider `COc1ccc(NS(=O)(=O)c2ccc3c(c2)[C@H]2C=CC[C@H]2[C@@H](c2ccc(C(=O)O)cc2)N3)cc1` [Entry 100, 4-[(3aR,4S,9bS)-8-[(4-methoxyphenyl)sulfamoyl]-3a,4,5,9b-tetrahydro-3H-cyclopenta[c]quinolin-4-yl]benzoic acid], for which the “Fold-change determined at compound concentration 33 μM” value was 1.315 and the “Fold-change determined at compound concentration 100 μM” value stood at 2.297.
The matching figures for `Cc1ccc(-n2c(N3CCCC(C(=O)O)C3)nc3ccsc3c2=O)cc1` (stereo not shown) [Entry 38, 1-[3-(4-methylphenyl)-4-oxo-3,4-dihydrothieno[3,2-d]pyrimidin-2-yl]piperidine-3-carboxylic acid]: 1.207 and 1.631.
The corresponding values for `COc1c2ccoc2nc2c(OC)cccc12` [Entry 92, 4,8-dimethoxyfuro[2,3-b]quinoline] are 1.175 and 1.478.
The corresponding values for `COc1cccc(CNC2=Nc3ccccc3NC23CCCCC3)c1` [Entry 63, N-[(3-methoxyphenyl)methyl]spiro[4H-quinoxaline-3,1′-cyclohexane]-2-amine] are 1.113 and 1.417.
In the case of `O=C(O)c1ccccc1C(=O)Nc1ccc(Br)c2cccnc12` [Entry 83, 2-[(5-bromoquinolin-8-yl)carbamoyl]benzoic acid], the “Fold-change determined at compound concentration 33 μM” value came to 1.041 and the “Fold-change determined at compound concentration 100 μM” value is recorded as 1.203.
As to `CN1C(=O)C(c2c(-c3ccc4ccccc4c3)[nH]c3[nH]c(=O)[nH]c(=O)c23)c2ccccc21` (stereo not shown) [Entry 236, 5-(1-methyl-2-oxo-2,3-dihydro-1H-indol-3-yl)-6-(2-naphthyl)-1H-pyrrolo[2,3-d]pyrimidine-2,4(3H,7H)-dione], the “Fold-change determined at compound concentration 33 μM” value was found to be 1.39 and the “Fold-change determined at compound concentration 100 μM” value is listed as 1.75. Moreover, where the note is “10 μM compound”, the “Fold-change determined at compound concentration 10 μM” value came to 1.272.
As for `Cc1nc(-c2cnccn2)nc2c1CC(=O)N2CC1CCCO1` (stereo not shown) [Entry 230, 4-methyl-2-(2-pyrazinyl)-7-(tetrahydro-2-furanylmethyl)-5,7-dihydro-6H-pyrrolo[2,3-d]pyrimidin-6-one], the “Fold-change determined at compound concentration 33 μM” value came to 1.053 and the “Fold-change determined at compound concentration 100 μM” value is 1.527.
The corresponding values for `COc1c2[nH]c3occc3c(OC)c-2ccc1=O` [Entry 91, 4,8-dimethoxy-9H-furo[2,3-b]quinolin-7-one] are 1.197 and 1.537.
The corresponding values for `Cc1c2c(=O)n(-c3nc4ccccc4s3)[nH]c2cc(=O)n1CCc1cnc[nH]1` [Entry 176, 5-(2-(1H-imidazol-5-yl)ethyl)-2-(benzo[d]thiazol-2-yl)-4-methyl-1,2-dihydro-3H-pyrazolo[4,3-c]pyridine-3,6(5H)-dione] are 1.151 and 1.563.
For the molecule `CN(C)CCNC(=O)c1ccc(Cn2c(=O)c3cccn3c3cccnc32)cc1` [Entry 70, N-[2-(dimethylamino)ethyl]-4-[(6-oxopyrido[2,3-e]pyrrolo[1,2-a]pyrazin-5(6H)-yl)methyl]benzamide], the “Fold-change determined at compound concentration 33 μM” value stood at 1.103 and the “Fold-change determined at compound concentration 100 μM” value came to 1.206.
The matching figures for `COCc1c(Br)c(C)nc2sc3c(=O)n(-c4ccccc4C(=O)OC)nnc3c12` [Entry 167, methyl 2-(8-bromo-9-(methoxymethyl)-7-methyl-4-oxopyrido[3′,2′:4,5]thieno[3,2-d][1,2,3]triazin-3(4H)-yl)benzoate]: 1.413 and 1.995.
